Consider two compounds from US11458127B2, “Methods of treating brain tumors using combination therapy” (SERVIER PHARMACEUTICALS LLC, priority 2017, dated 2022).

One experiment relates to mutant IDH2 (mIDH2). The conditions noted are these: cited from earlier work.
The test system of another experiment is mIDH1-driven gliomas. The conditions noted are these: some model systems; D. Rohle et al. 2013; cited from earlier work.
The test system of the next experiment is mIDH1 cells. The conditions noted are these: in vitro; R. J. Molenaar et al. 2015; cited from earlier work.
The test system of another experiment is mutant IDH1 (mIDH1). The conditions noted are these: cited from earlier work.
Experiment [1] relates to mutant IDH1 proteins. The conditions noted are these: biochemical assays; cited from earlier work.
In experiment [2] the test system is mutant IDH1 proteins. Particulars: cellular assays; cited from earlier work.
The subject of another experiment is 2HG production. Description: animal or person. The conditions noted are these: po, read-out: Inhibition of 2HG production within the brain tumors.

Read-outs that look alike come from different tables or passages of the source. Where only a bound is given, the exact number is not on record here.

Description for 2HG production: Ivosidenib was orally dosed at 150 mg/kg, twice daily, for Groups 3-5.

For the compound `Cc1ccccc1C(C(=O)NC1CCCCC1)N(C(=O)Cn1ccnc1C)c1cccc(F)c1` (stereo not shown) [AGI-5198], in the experiment with mutant IDH2 (mIDH2), the “Inhibition of mutant IDH2” value is recorded as “not mutant IDH2 (mIDH2)”. The “Effect on growth of mIDH1-driven gliomas” value in the experiment on mIDH1-driven gliomas is “can repress growth of mIDH1-driven gliomas in some model systems”. Further, the “Sensitivity of treated mIDH1 cells to radiation therapy” value in the experiment with mIDH1 cells is given as “desensitized to radiation therapy”. For the same compound, the “Inhibition of mutant IDH1” value in the experiment with mutant IDH1 (mIDH1) is reported as “inhibit mutant IDH1 (mIDH1)”.

In general, inhibition refers to the change of the read-out against control, counted positive when it falls. On to `N#Cc1ccnc(N2C(=O)CC[C@H]2C(=O)N(c2cncc(F)c2)[C@H](C(=O)NC2CC(F)(F)C2)c2ccccc2Cl)c1` [Ivosidenib, (S)—N—((S)-1-(2-Chlorophenyl)-2-(3,3-difluorocyclobutylamino)-2-oxoethyl)-1-(4-cyanopyridin-2-yl)-N-(5-fluoropyridin-3-yl)-5-oxopyrrolidine-2-carboxamide], for which the “Activity on mutant IDH1 proteins” value with mutant IDH1 proteins [1] and in the experiment on mutant IDH1 proteins [2] was “inhibitor of mutant IDH1 proteins” in each case. For the same compound, in the experiment with 2HG production, the inhibition at 150 mg/kg is over 98%.
